Results on 4 compounds are retold here after the NIST ThermoML archive (doi:10.1016/j.jct.2012.12.003).

Several values for one entry are separate records, joined by “and”; a condition that tells them apart may be missing. Equal entries are not always repeated. Numbers after ± are expanded uncertainties.

The conditions of this data set: 101.3 kPa, Liquid, Vibrating tube method.

As to `CC(O)CO` (centres undefined) [1,2-propanediol], the mass density (in general, the mass of a sample divided by its volume) is 1036.21 ± 0.14 kg/m3 [middle of 4 runs] (293.15 K); 1032.55 ± 0.13 kg/m3 [middle of 4 runs] (298.15 K); 1028.84 ± 0.13 kg/m3 [middle of 4 runs] (303.15 K); 1025.09 ± 0.13 kg/m3 and 1025.1 ± 0.13 kg/m3 and 1025.05 ± 0.13 kg/m3 (308.15 K); 1021.28 ± 0.13 kg/m3 and 1021.31 ± 0.13 kg/m3 (313.15 K); 1017.47 ± 0.13 kg/m3 and 1017.49 ± 0.13 kg/m3 (318.15 K).

Regarding `CCCCCCO` [hexan-1-ol], the mass density (293.15 K) was found to be 818.749 ± 0.24 kg/m3; the mass density (298.15 K) came out at 815.188 ± 0.24 kg/m3; the mass density (303.15 K) came to 811.6 ± 0.24 kg/m3; the mass density (308.15 K) turned out to be 807.984 ± 0.24 kg/m3; the mass density (313.15 K) is given as 804.339 ± 0.24 kg/m3; the mass density (318.15 K) came to 800.657 ± 0.24 kg/m3.

Consider `CCCO` [propan-1-ol], for which the mass density runs as follows: (293.15 K) 803.527 ± 0.14 kg/m3; (298.15 K) 799.528 ± 0.14 kg/m3; (303.15 K) 795.493 ± 0.14 kg/m3; (308.15 K) 791.426 ± 0.14 kg/m3; (313.15 K) 787.32 ± 0.15 kg/m3; (318.15 K) 783.164 ± 0.15 kg/m3.

Turning to `CCCCCCCCCO` [nonan-1-ol], the mass density worked out at 827.667 ± 0.24 kg/m3 (293.15 K); 824.254 ± 0.24 kg/m3 (298.15 K); 820.815 ± 0.24 kg/m3 (303.15 K); 817.362 ± 0.24 kg/m3 (308.15 K); 813.885 ± 0.24 kg/m3 (313.15 K); 810.385 ± 0.24 kg/m3 (318.15 K).
